Assay results as given in US11046691B1 (IDEAYA BIOSCIENCES, INC., priority 2018, dated 2021).

Biological target: hMAT2A (Homo sapiens (Human), UniProt P31153)
Assay: Phosphate Sensor Fluorescence Assay (MAT2A enzyme inhibition)
Type: biochemical
Details: L-methionine 500 uM, ATP 500 uM, class symbols
Method: The ability of the compound of present disclosure to inhibit MAT2A enzyme was determined using the Malachite Green or Phosphate Sensor Fluorescence Assay described below.
B. Phosphate Sensor Fluorescence Assay
MAT2A enzyme is incubated with a test compound in DMSO or DMSO and its substrates (L-methionine and ATP) in a microtiter plate. The enzymatic reaction is stopped by the addition of Working Phosphate Sensor Mixture. The plate is analyzed for fluorescence at 450 nm.
Assay Buffer: 50 mM Tris, pH 7.5/50 mM KCl/10 mM MgCl2/0.01% Brij-35/1 mM DTT/0.1% BGG/40 nM PNP/6 uM 7-MEG
L-methionine: 500 uM before the addition of Working Phosphate Sensor Mixture
ATP: 500 uM before the addition of Working Phosphate Sensor Mixture
Test compounds or DMSO were added to the appropriate well suing D300e digital dispenser. 5 μl/well of Assay Buffer was added to the wells corresponding to the negative control and 5 μl/well of MAT2A was added to all the wells except for those corresponding to the negative control. After incubating the plate at room temperature for 15 minutes, 5 μl/well of the 1 mM L-methionine/1 mM ATP mixture was added to all wells. The plate was centrifuged at 1000 rpm for 1 minute and then incubated at room temperature for 1 hour. 5 μl of the Working Phosphate Sensor Mixture was added to all wells and the plate was centrifuged at 1000 rpm for 1 minute. The plate was read for fluorescence at 450 nm after exciting at 430 nm.
Percent inhibition was calculated in Chemical and Biological Information System (CBIS), (ChemInnovation Software Inc.). Curves were fitted by CBIS as % inhibition vs. log [compound concentration] using a 4-parameter inhibition model. Fit=(A+((B−A)/(1+((C/x)^D)))) Res=(y−fit)

hMAT2A, sequence (P31153 whole entry): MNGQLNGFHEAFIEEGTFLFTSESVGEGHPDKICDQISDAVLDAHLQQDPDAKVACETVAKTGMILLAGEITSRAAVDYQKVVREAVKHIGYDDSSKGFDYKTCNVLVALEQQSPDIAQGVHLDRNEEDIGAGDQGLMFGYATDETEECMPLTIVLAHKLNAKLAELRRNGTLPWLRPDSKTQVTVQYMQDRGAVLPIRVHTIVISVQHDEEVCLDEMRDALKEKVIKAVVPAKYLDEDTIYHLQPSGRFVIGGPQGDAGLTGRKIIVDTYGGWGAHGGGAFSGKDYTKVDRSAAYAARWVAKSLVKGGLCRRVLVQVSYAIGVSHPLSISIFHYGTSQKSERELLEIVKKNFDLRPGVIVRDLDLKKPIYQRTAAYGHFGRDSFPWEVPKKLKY

IC50 [nM]	Molecule
< 200	O=c1nc(Nc2cnoc2)c2cc(Cl)c(Br)cc2n1-c1ccccc1Cl [Example 412, 7-bromo-6-chloro-1-(2-chlorophenyl)-4-(isoxazol-4-ylamino)hydroquinazolin-2-one]
< 200	N#C[C@H]1C[C@@H](Nc2nc(=O)n(-c3ccccc3Cl)c3nc(C(F)(F)F)ccc23)C1 [Example 318, (1s,3s)-3-((1-(2-chlorophenyl)-2-oxo-7-(trifluoromethyl)-1,2-dihydropyrido[2,3-d]pyrimidin-4-yl)amino)cyclobutane-1-carbonitrile]
< 200	CNc1nc(=O)n(-c2cccc(CC(=O)O)c2)c2cc(Cl)ccc12 [Example 419, 2-(3-(7-chloro-4-(methylamino)-2-oxoquinazolin-1(2H)-yl)phenyl)acetic acid]
< 200	CN(C)c1nc(=O)n(-c2ccc3[nH]cnc3c2)c2cc(Cl)ccc12 [Example 306, 1-benzimidazol-5-yl-4-(dimethylamino)-7-chlorohydroquinazolin-2-one]
1000 to 10000	CNC(=O)CN(C)c1nc(=O)n(-c2ccccc2)c2cc(Cl)ccc12 [Example 221, 2-((7-chloro-2-oxo-1-phenyl-1,2-dihydroquinazolin-4-yl)(methyl)amino)-,N-methylacetamide]
1000 to 10000	CNc1nc(=O)n(-c2ncccn2)c2cc(C3CC3)ccc12 [Example 309, 7-cyclopropyl-4-(methylamino)-1-pyrimidin-2-ylhydroquinazolin-2-one]
< 200	CNc1nc(=O)n(-c2ccccc2Br)c2cc(Cl)ccc12 [Example 225, 1-(2-bromophenyl)-7-chloro-4-(methylamino)quinazolin-2-one]
< 200	CNc1nc(=O)n(-c2cccc(C(F)F)c2)c2cc(Cl)ccc12 [Example 355]
1000 to 10000	CS(=O)(=O)CCNc1nc(=O)n(-c2ccccc2Cl)c2cc(C3CC3)c(C#N)cc12 [Example 403, 1-(2-chlorophenyl)-7-cyclopropyl-4-((2-(methylsulfonyl)ethyl)amino)-2-oxo-1,2-dihydroquinazoline-6-carbonitrile]
1000 to 10000	Nc1nc(=O)n(-c2ccccc2)c2cc(Cl)cc(-n3cccn3)c12 [Example 387, 4-amino-7-chloro-1-phenyl-5-pyrazol-1-ylhydroquinazolin-2-one]
< 200	CN(C)c1nc(=O)n(-c2cccc(CCCc3ccccc3)c2)c2cc(Cl)ccc12 [Example 227, 4-(dimethylamino)-7-chloro-1-[3-(3-phenylpropyl)phenyl]hydroquinazolin-2-one]
< 200	COc1nc(=O)n(-c2ccccc2)c2cc(C3CC3)ccc12 [Example 399, 7-cyclopropyl-4-methoxy-1-phenyl-hydroquinazolin-2-one]
< 200	CNc1nc(=O)n(-c2cnccc2Cl)c2nc(C(F)(F)F)ccc12 [Example 377, 1-(4-chloropyridin-3-yl)-4-(methyl-amino)-7-(trifluoromethyl)pyrido[2,3-d]pyrimidin-2(1H)-one]
< 200	CN(C)c1nc(=O)n(-c2ccccc2Cl)c2nc(C(F)(F)F)ccc12 [Example 244, 1-(2-chlorophenyl)-4-(dimethylamino)-7-(trifluoromethyl)pyrido[2,3-d]-pyrimidin-2(1H)-one]
< 200	O=c1nc(N[C@H]2C[C@H]2F)c2ccc(C(F)(F)F)cc2n1-c1ccccc1 [Example 424, 4-(((1S,2R)-2-fluorocyclopropyl)amino)-1-phenyl-7-(trifluoromethyl)quinazolin-2(1H)-one]
< 200	O=c1nc(N2CC[C@@H](O)C2)c2ccc(Cl)cc2n1-c1ccc2[nH]cnc2c1 [Example 281, (R)-7-chloro-4-(3-hydroxypyrrolidin-1-yl)-1-(1H-benzimidazol-5-yl)quinazolin-2(1H)-one]
< 200	Nc1nc(=O)n(-c2ccccc2)c2cc(C3CC3)ccc12 [Example 400, 4-amino-7-cyclopropyl-1-phenylhydro-quinazolin-2-one]
< 200	O=c1nc(NCC(F)(F)F)c2ccc(C(F)(F)F)nc2n1-c1ccccc1Cl [Example 389, 1-(2-chlorophenyl)-4-[(2,2,2-trifluoro-ethyl)amino]-7-(trifluoro-methyl)-pyrido[2,3-d]pyrimidin-2(1H)-one]
< 200	CNc1nc(=O)n(-c2cccnc2)c2nc(C(F)(F)F)ccc12 [Example 378, 4-(methylamino)-1-(pyridin-3-yl)-7-(trifluoromethyl)pyrido[2,3-d]pyrimidin-2(1H)-one]

Second part, the molecule before the results:

Molecule	IC50 [nM]
CNc1nc(=O)n(-c2cccc(C#N)c2)c2cc(C(F)(F)F)ccc12 [Example 142, 3[4-(methylamino)-2-oxo-7-(trifluoro-methyl)hydroquinazolinyl]benzene-carbonitrile]	< 200
CNc1nc(=O)n(-c2ccccc2C)c2cc(C(F)(F)F)ccc12 [Example 129, 4-(methylamino)-1-(2-methylphenyl)-7-(trifluoromethyl)hydroquinazolin-2-one]	< 200
O=c1[nH]c(=O)n(-c2ccccc2)c2cc(C(F)F)ccc12 [Example 166, 7-(difluoromethyl)-1-phenyl-1,3-dihydroquinazoline-2,4-dione]	200 to 500
O=c1nc(N2CCCC2)c2ccc(C(F)(F)F)nc2n1-c1ccccc1Cl [Example 176, 1-(2-chlorophenyl)-4-(pyrrolictin-1-yl)-7-(trifluoromethyl)pyrido[2,3-d]pyrimidin-2(1H)-one]	< 200
CS(=O)(=O)Nc1nc(=O)n(-c2ccccc2)c2cc(Cl)ccc12 [Example 200, N-(7-chloro-2-oxo-1-phenyl-1,2-dihydroquinazolin-4-yl)methane-sulfonamide]	1000 to 10000
CNc1nc(=O)n(-c2nccn2C)c2cc(Cl)ccc12 [Example 188]	200 to 500
CN(Cc1ccccc1)c1nc(=O)n(-c2ccccc2)c2cc(Cl)ccc12 [Example 197, 7-chloro-4-[methylbenzylamino]-1-phenylhydroquinazolin-2-one]	< 200
Nc1nc(=O)n(-c2ccccc2Cl)c2cc(C(F)(F)F)ccc12 [Example 99, 4-amino-1-(2-chlorophenyl)-7-(trifluoromethyl)hydroquinazolin-2-one]	< 200
CN(C)C(=O)CN(C)c1nc(=O)n(-c2ccccc2)c2cc(Cl)ccc12 [Example 220, 2-((7-chloro-2-oxo-1-phenyl-1,2-dihydroquinazolin-4-yl)(methyl)amino)-N,N-dimethylacetamide]	1000 to 10000
Nc1nc(=O)n(-c2ccccc2)c2cc(Br)ccc12 [Example 163, 4-amino-7-bromo-1-phenylhydro-quinazolin-2-one]	< 200
N#Cc1cccc(-n2c(=O)nc(N)c3ccc(C(F)(F)F)cc32)c1 [Example 140, 3-[4-amino-2-oxo-7-(trifluoromethyl)-hydroquinazolinyl]benzenecarbonitrile]	< 200
CNc1nc(=O)n(-c2cccc(C(F)(F)F)c2)c2cc(Cl)ccc12 [Example 86, 7-chloro-4-(methylamino)-1-[3-(trifluoromethyl)phenyl]hydroquina-zolin-2-one]	200 to 500
COc1nc(=O)n(-c2ccccc2)c2cc(C(F)(F)F)ccc12 [Example 144, 4-methoxy-1-phenyl-7-(trifluoromethyl)-hydroquinazolin-2-one]	200 to 500
O=c1[nH]c(=O)n(-c2ccccc2Cl)c2cc(C(F)(F)F)ccc12 [Example 103, 1-(2-chlorophenyl)-7-(trifluoromethyl)-1,3-dihydroquinazoline-2,4-dione]	< 200
1-[2-(difluoromethoxy)(3--pyridyl)]-7- cyclopropyl-4-[(cyclopropylmethyl)- amino]hydroquinazolin-2-one [Example 416]	< 200

Same assay, conditions: L-methionine 500 uM, ATP 500 uM, numeric bound

IC50 [nM]	Molecule
> 10000	CN(Cc1ccccn1)c1nc(=O)n(-c2ccccc2)c2cc(Cl)ccc12 [Example 236, 7-chloro-4-[methyl(pyridin-2-ylmethyl)-amino]-1-phenylhydroquinazolin-2-one]
> 10000	O=c1nc(O)c2c(-c3ccncc3)cc(Cl)cc2n1-c1ccccc1 [Example 291, 7-chloro-4-hydroxy-1-phenyl-5-(pyridin-4-yl)quinazolin-2(1H)-one]
> 10000	CNc1nc(=O)n(-c2ccccc2)c2cc(Cl)nnc12 [Example 243, 3-chloro-8-(methylamino)-5-phenyl-5-hydropyrimidino[5,4-c]pyridazin-6-one]
> 10000	O=c1nc(O)c2c(C3=CCNC3)cc(Cl)cc2n1-c1ccccc1 [Example 289, 7-chloro-5-(2,5-dihydro-1H-pyrrol-3-yl)-4-hydroxy-1-phenylquinazolin-2(1H)-one]

Continued, molecule first:

Molecule	IC50 [nM]
CC(C)c1nc(=O)n(-c2ccccc2)c2cc(Cl)ccc12 [Example 104, 7-chloro-4-(methylethyl)-1-phenylhydro-quinazolin-2-one]	> 10000
CNc1nc(=O)n(-c2nc(C(F)(F)F)cs2)c2cc(Cl)ccc12 [Example 113, 7-chloro-4-(methylamino)-1-[4-(trifluoromethyl)(1,3-thiazol-2-yl)]hydroquinazolin-2-one]	> 10000
